Like-named read-outs stand apart in the source and are kept apart here.
Columns and labels:
hERG K+ channel = biological target: T1, hERG K+ channel (Homo sapiens, UniProt Q12809); test: hERG channel inhibition assay (patch-clamp, CHO-hERG cells); format: cell-based; settings: for IC50 / IC20: CHO-hERG cells, whole-cell patch-clamp; for IC20: human, CHO cells stably expressing hERG; for hERG IC20/TLR7 IC50 / hERG IC20/TLR8 IC50 / hERG IC20/TLR9 IC50: safety ratio
T1 construct: expressed in transfected cells; host or cells: CHO (Chinese hamster ovary)
Procedure: The hERG K^+ channels were cloned in humans and stably expressed in a CHO (Chinese hamster ovary) cell line. CHOhERG cells were used for patch-clamp (voltage-clamp, whole-cell) experiments. Cells were stimulated by a voltage pattern to activate hERG channels and conduct IKhERG Currents (rapid delayed outward rectifier potassium current of the hERG channel). After the cells were stabilized for a few minutes, the amplitude and kinetics of IKhERG were recorded at a stimulation frequency of 0.1 Hz (6 bpm). Thereafter, the test compound was added to the preparation at increasing concentrations. For each concentration, an attempt was made to reach a steady-state effect, usually, this was achieved within 3-10 min at which time the next highest concentration was applied. The amplitude and kinetics of IKhERG are recorded in each concentration of the drug which were compared to the control values (taken as 100%). (references: Redfe W S, Carlsson L, Davis A S, Lynch W G, MacKenzie I, Palethorpe S, Siegl P K, Strang I, Sullivan A T, Wallis R, Camm A J, Hammond T G. 2003; Relationships between preclinical cardiac electrophysiology, clinical QT interval prolongation and torsade de pointes for a broad range of drugs: evidence for a provisional safety margin in drug development. Cardiovasc. Res. 58:32-45, Sanguinetti M C, Tristani-Firouzi M. 2006; hERG potassium channels and cardiac arrhythmia. Nature 440:463-469, Webster R, Leishman D, Walker D. 2002; Towards a drug concentration effect relationship for QT prolongation and torsades de pointes. Curr. Opin. Drug Discov. Devel. 5:116-26).

[1] = Single dose pharmacokinetics (PK) study in male Wister-Han rats; format: in vivo; settings: rat; for clearance / half-life / AUC(0-t) / Vd / Cmax: male, Wister-Han, plasma; for Vd: read-out: Vss; for F: dose normalized AUC0-last after IV and PO dose
Procedure: Pharmacokinetic properties of selected compounds were assessed by single dose PK studies in Male Wister-Han Rats (vendor: Beijing Vital River Laboratory Animal Technology Co., Ltd). Briefly, two groups of animals were administered a single dose of respective compound intravenously (IV, bolus) at 2 mg/kg or orally (PO, by gavage) at 10 mg/kg. Blood samples (approximately 150 μL) were collected via Jugular vein at 5 min (only for IV), 15 min, 30 min, 1 h, 2 h, 4 h, 7 h and 24 h post-dose. Blood samples were placed into tubes containing EDTA-K2 anticoagulant and centrifuged at 3000 rpm for 15 min at 4° C. to separate plasma from the samples. After centrifugation, the resulting plasma was transferred to clean tubes for bioanalysis with LC/MS/MS. The pharmacokinetic parameters were calculated using non-compartmental analysis. The volume of distribution (Vss), half-life (T1/2) and clearance (CL) were obtained based on the plasma concentration-time curve after IV dose. The peak concentration (Cmax) was recorded directly from experimental observations after PO dose. The area under the plasma concentration-time curve (AUC0-last) was calculated using the linear trapezoidal rule up to the last detectable concentration. The bioavailability (F) was calculated based on the dose normalized AUC0-last after IV and PO dose.
The Vss of a drug represents the degree to which a drug is distributed in body tissue rather than the plasma. Vss is directly proportional with the amount of drug distributed into tissue. A higher Vss indicates a greater amount of tissue distribution.

[2] = IV 2 mg/kg, read-out: IV AUC0-last
[3] = PO 10 mg/kg, read-out: PO AUC0-last

T1 sequence (Q12809 whole entry): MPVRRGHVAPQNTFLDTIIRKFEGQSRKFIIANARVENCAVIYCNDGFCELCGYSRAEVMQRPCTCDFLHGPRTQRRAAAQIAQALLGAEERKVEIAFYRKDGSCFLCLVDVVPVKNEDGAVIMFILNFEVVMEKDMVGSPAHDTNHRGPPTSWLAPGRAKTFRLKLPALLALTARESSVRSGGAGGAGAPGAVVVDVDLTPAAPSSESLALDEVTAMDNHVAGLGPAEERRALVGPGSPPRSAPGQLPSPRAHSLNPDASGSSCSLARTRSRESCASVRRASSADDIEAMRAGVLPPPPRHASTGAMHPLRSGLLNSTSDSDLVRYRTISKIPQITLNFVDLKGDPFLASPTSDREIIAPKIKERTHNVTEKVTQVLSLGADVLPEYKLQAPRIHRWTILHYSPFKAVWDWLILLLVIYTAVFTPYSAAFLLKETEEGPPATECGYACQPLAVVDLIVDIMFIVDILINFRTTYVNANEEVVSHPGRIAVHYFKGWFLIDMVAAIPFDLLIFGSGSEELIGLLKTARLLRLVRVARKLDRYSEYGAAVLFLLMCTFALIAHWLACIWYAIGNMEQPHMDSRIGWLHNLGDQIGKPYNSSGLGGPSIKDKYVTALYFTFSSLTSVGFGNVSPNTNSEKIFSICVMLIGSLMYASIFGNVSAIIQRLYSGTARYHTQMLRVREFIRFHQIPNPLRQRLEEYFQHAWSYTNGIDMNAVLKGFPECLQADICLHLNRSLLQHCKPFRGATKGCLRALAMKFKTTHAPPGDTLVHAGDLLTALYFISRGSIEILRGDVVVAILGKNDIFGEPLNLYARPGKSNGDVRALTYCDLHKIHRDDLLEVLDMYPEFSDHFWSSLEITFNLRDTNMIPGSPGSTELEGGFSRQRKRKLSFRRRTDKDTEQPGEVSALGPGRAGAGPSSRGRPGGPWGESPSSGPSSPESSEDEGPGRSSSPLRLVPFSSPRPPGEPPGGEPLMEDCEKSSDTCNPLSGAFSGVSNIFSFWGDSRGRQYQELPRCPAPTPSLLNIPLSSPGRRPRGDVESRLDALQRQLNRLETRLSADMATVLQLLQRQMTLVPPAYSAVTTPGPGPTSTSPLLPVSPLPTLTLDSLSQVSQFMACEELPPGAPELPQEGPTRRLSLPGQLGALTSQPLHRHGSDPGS

SMILES | IC50 (hERG K+ channel) | IC20 (hERG K+ channel) | hERG IC20/TLR7 IC50 (hERG K+ channel) | hERG IC20/TLR8 IC50 (hERG K+ channel) | hERG IC20/TLR9 IC50 (hERG K+ channel) | clearance ([1]; IV 2 mg/kg) | half-life ([1]; IV 2 mg/kg) | AUC(0-t) [1, 2] | Vd ([1]; IV 2 mg/kg) | Cmax ([1]; PO 10 mg/kg) | AUC(0-t) [1, 3] | F [1]
Cc1cc(N2CCC(c3ncc(N4CCNCC4)cc3C)CC2)c2cnn(C)c2n1 [Example 7, 1,6-dimethyl-4-[4-(3-methyl-5-piperazin-1-yl-2-pyridyl)-1-piperidyl]pyrazolo[3,4-b]pyridine] | > 20 µM | 5.1 µM | 463.6 | 175.9 | 98.1 | 16 mL/min/kg | 14.7 h | 1520 ng·h/mL | 16.8 L/kg | 465 ng/mL | 7510 ng·h/mL | 100%
CO[C@@H]1CN(c2cnc([C@@H]3CCN(c4cc(C)nc5c4cnn5C)C[C@H]3C)c(C)c2)C[C@H]1N [Example 26, (3R,4R)-1-[6-[(3S,4R)-1-(1,6-dimethylpyrazolo[3,4-b]pyridin-4-yl)-3-methyl-4-piperidyl]-5-methyl-3-pyridyl]-4-methoxy-pyrrolidin-3-amine] | > 20 µM | > 10 µM | >833.3 | >714.3 | >91.7 | 10.3 mL/min/kg | 15.7 h | 2200 ng·h/mL | 12.5 L/kg | 620 ng/mL | 9260 ng·h/mL | 84.3%
Cc1cc(N2CC[C@@H](c3ncc(N4CCOC[C@@H](N)C4)cc3C)[C@H](C)C2)c2cnn(C)c2n1 [Example 28, (6S)-4-[6-[(3S,4R)-1-(1,6-dimethylpyrazolo[3,4-b]pyridin-4-yl)-3-methyl-4-piperidyl]-5-methyl-3-pyridyl]-1,4-oxazepan-6-amine] | > 20 µM | 6.4 µM | 914.3 | 3200.0 | 50.8 | 30.2 mL/min/kg | 8.84 h | 974 ng·h/mL | 16.7 L/kg | 122 ng/mL | 1800 ng·h/mL | 37%
CO[C@@H]1CN(c2ccc([C@H]3CCN(c4cc(C)nc5c4cnn5C)C[C@@H]3C)nc2)C[C@H]1N [Example 36, (3R,4R)-1-[6-[(3R,4S)-1-(1,6-dimethylpyrazolo[3,4-b]pyridin-4-yl)-3-methyl-4-piperidyl]-3-pyridyl]-4-methoxy-pyrrolidin-3-amine] | > 20 µM | > 10 µM | >555.6 | >476.2 | >58.8 | – | – | – | – | – | – | –
COC[C@H]1CN(c2ccc([C@H]3CCN(c4cc(C)nc5c4cnn5C)C[C@@H]3C)nc2)CCN1 [Example 37, 4-[(3R,4S)-4-[5-[(3R)-3-(methoxymethyl)piperazin-1-yl]-2-pyridyl]-3-methyl-1-piperidyl]-1,6-dimethyl-pyrazolo[3,4-b]pyridine] | > 20 µM | > 10 µM | >1111.1 | >769.2 | >30.1 | – | – | – | – | – | – | –
Cc1cc(N2CC[C@H](c3ccc(N4CC5(CNCCO5)C4)cn3)[C@@H](C)C2)c2cnn(C)c2n1 [Example 38, 2-[6-[(3R,4S)-1-(1,6-dimethylpyrazolo[3,4-b]pyridin-4-yl)-3-methyl-4-piperidyl]-3-pyridyl]-5-oxa-2,8-diazaspiro[3.5]nonane] | > 20 µM | 5.2 µM | 400.0 | 472.7 | 27.1 | – | – | – | – | – | – | –
Cc1cc(N2CC[C@H](c3ccc(N4CCOC[C@@H](N)C4)cn3)[C@@H](C)C2)c2cnn(C)c2n1 [Example 40, (6S)-4-[6-[(3R,4S)-1-(1,6-dimethylpyrazolo[3,4-b]pyridin-4-yl)-3-methyl-4-piperidyl]-3-pyridyl]-1,4-oxazepan-6-amine] | > 20 µM | 5.9 µM | 655.6 | 842.9 | 34.1 | 32.8 mL/min/kg | 7.26 h | 1060 ng·h/mL | 13.2 L/kg | 216 ng/mL | 2840 ng·h/mL | 53.4%
Cc1cc(N2CC[C@H](c3ccc(N4CC(C)(N)C4)cn3)[C@@H](C)C2)c2cnn(C)c2n1 [Example 43, 1-[6-[(3R,4S)-1-(1,6-dimethylpyrazolo[3,4-b]pyridin-4-yl)-3-methyl-4-piperidyl]-3-pyridyl]-3-methyl-azetidin-3-amine] | > 20 µM | > 10 µM | >625.0 | >1666.7 | >49.3 | – | – | – | – | – | – | –
